Source: patent US20050152995A1, “Methods and compositions for promoting axon regeneration and cell replacement therapy” (priority 2003, published 2005)
Like-named read-outs stand apart in the source and are kept apart here.

Assays:
[1] = system: severed optic nerve (astrocytes, RGC axons); type: in vivo, mouse
Procedure: To evaluate the effects of lithium used simultaneously with astrotoxin in optic nerve regeneration in adult mice, an on optic nerve crush was performed in adult mice. Immediately after the optic nerve crush, a piece of gelform soaked in astrotoxin solution or PBS was placed against the crush site. Thereafter, mice were divided into two groups: one group received a diet containing lithium, and the other received a control diet.
Mice were sacrificed on day 8 after the nerve crush to examine axon regeneration.
Surgical procedure: All experimental procedures and use of animals were approved by Animal Care and Use Committee in the Schepens Eye Research Institute and adhered to the ARVO statement for the Use of Animals in Ophthalmic and Vision Research. Adult C57BL/6J mice were anesthetized with a mixture of ketamine (12.5 mg/ml, Sigma) and xylazine (2.5 mg/ml, Sigma) (5 μ/g). Optic nerve was exposed intraorbitally and crushed for 3 seconds using fine forceps. Immediately after nerve crush, a piece of gelfoam soaked with L-α-aminoadipate (10 mg/ml; Sigma) was placed against the crushed site. Gelfoam soaked with phosphate buffered saline (PBS) was used as control. To ensure continued delivery of astrotoxin, the gelfoam was replaced every 3 days post-injury (DPI). Following recovery from the optic nerve surgery, mice were divided into two groups: one group received a diet supplemented with lithium ([…], Bio-Serv), and the other group received a control diet. Mice were sacrificed on 8 DPI, and the mouse serum was collected to determine serum lithium concentration (Medtox Laboratories Inc).
(§1) Retinal histology and immunohistochemistry: The eyeball and optic nerve were dissected out, fixed in 4% paraformaldehyde for 1 hr, cryoprotected and embedded in O.T.C. The tissues were then cryosectioned at 12 μm and subjected to cresyl violet staining or immunohistochemistry. For immunofluorescence labeling, tissue sections were reacted with Cy-3 conjugated mouse anti-GFAP (1:1000, Sigma) or rabbit anti-GAP-43 (1:200, Chemicon). The signal of GAP-43 was then visualized by FITC-conjugated goat anti-rabbit IgG (1:250, Vector Lab.). To detect the expression of Bcl-2 protein, the eyeballs were dissected out and embedded without fixation. Before immunostaining, retinal sections were fixed with acetone that was stored at −20° C. for 15 min and incubated with Bcl-2 antibody (1:50, Transduction lab) followed by reaction with biotinylated anti-mouse IgG (1:100, Vector Lab.) and DTAF-conjugated Streptavidin (1:100, Jackson Lab). The sections were then counter-stained with DAPI (1:150, Sigma) to reveal cell nuclei before they were mounted with Vectashield (Vector Lab) and examined under epifluorescence microscope.
Quantitation of Axon Regeneration: Following staining with anti-GAP-43 antibody, the longest distance of axon regeneration axon was measured from the crushed site in optic nerve sections. At least 4 sections were sampled from each optic nerve, and the measured lengths of regenerating axons were averaged. Statistical significance was determined by One-way ANOVA and Tukey-Kramer multiple comparison tests.

[2] = system: severed optic nerve (astrocytes, RGC axons); type: in vivo, mouse; conditions: for axonal regeneration after optic nerve crush: n=5
Procedure: Optic nerve crush was performed in Bcl-2tg (14) and wild-type littermate mouse pups, prior to the knowledge of genotypes. Regeneration was assessed and corroborated by three labeling methods: anterograde axon tracing, immunofluorescent staining, and retrograde labeling of RGCs that regenerated their axons. […].
To assess the functional significance of astrocyte maturation in optic nerve regeneration, we treated adult (2-3-month-old) wild-type and Bcl-2tg mice with astrotoxin (L-alpha-aminoadipate), which selectively kills astrocytes and has minimal effects on surrounding neurons and myelin (25, 26). Immediately after optic nerve crush, gelform soaked in L-alpha-aminoadipate solution (10 mg/ml in PBS, Sigma) or PBS was placed against the crush site. […] Regenerating axons extended exclusively into the GFAP-negative area and stopped abruptly where GFAP staining reappeared (FIG. 4B, D).
To quantify axonal regeneration, we used electron microscopy to examine optic nerve sections of adult wild-type and Bcl-2tg mice treated with astrotoxin or PBS. Degenerating myelin and tissue debris were found in sections of all groups (FIG. 4I, J). In treated Bcl-2tg mice (n=5), a large number of regenerating axons were seen 0.5 mm posterior to the crush site, an area devoid of astrocytes and their cellular processes (FIG. 4J). […] In contrast, in other three groups, few axons were present in optic nerve sections if they were collected at 0.5 mm posterior to the crush (n=3/group). Regenerating axons were 20-fold more abundant in astrotoxin-treated Bcl-2tg mice than in PBS-treated wild-type mice (P<0.001) (FIG. 4K). Thus, elimination of mature astrocytes promoted robust optic nerve regeneration in adult Bcl-2tg mice.

[3] = system: retinal ganglion cells (RGCs)
Procedure: The neuroprotective effect of lithium-containing diet on the survival of fluorogold (FG)-labeled RGCs was assessed.
After sacrificing, whole-mount retinas were prepared. At least 12 non-overlapping areas of the retina were selected randomly and photographed. Surviving RGCs that were labeled with FluoroGold were counted, and the density of survival RGCs was determined.

[4] = mice on lithium-containing diet, n=9, 8 DPI
Procedure: To determine whether lithium induces the expression of Bcl-2 in adult retinal neurons in vivo, we fed mice with food chow containing lithium.
Adult C57BL/6J mice were anesthetized with a mixture of ketamine (12.5 mg/ml, Sigma) and xylazine (2.5 mg/ml, Sigma) (5 μ/g). […] Mice were sacrificed on 8 DPI, and the mouse serum was collected to determine serum lithium concentration (Medtox Laboratories Inc).

Bcl-2 = system: Bcl-2
Source text: as §1

[5] = system: inner limiting membrane (ILM) of the retina; experiment: Retinal transplantation into collagenase-treated wild-type retinas; type: in vivo, mouse; conditions: collagenase 100 U/ml, n=4
Procedure: To distinguish implanted cells and their cellular processes from the host environment, we used retinas from mice expressing an enhanced green fluorescent protein (EGFP) transgene driven by a chicken b-actin promoter and cytomegalovirus enhancer (24′). Suspensions of retinal cells from postnatal day 0 (P0) EGFP mice were injected into the subretinal space of adult wild-type or GFAP−/−Vim−/− hosts. […] To confirm that this failure of neural integration into the wild-type hosts was not a result of the site of transplantation, we injected cells into the vitreous cavity (n=4) (FIG. 6B). […] Few neurons migrated and extended neurites into the damaged retinal area but not beyond (FIG. 1B).
To exclude the possibility that this change in the property of the ILM in GFAP−/−Vim−/− mice affected the fate of retinal transplants, we treated wild-type retinas with collagenase (100 U/ml) to break down the ILM (n=4). By comparing with untreated wild-type hosts (n=3), we found no difference in graft cell migration and neurite extension into the retinas of collagenase treated and untreated mice (data not shown).

[6] = adult wild-type mice, day 8 after nerve crush

N[C@@H](CCCC(=O)O)C(=O)O [astrotoxin, L-alpha-aminoadipate]
GFAP expression along the crushed optic nerve [1, 6]: a region devoid of immunorective astrocytes (GFAP-negative) was generated
axon regeneration (GAP-43 labeling) [1, 6]: no sign of regeneration
length of regenerating axons extending from the crushed site ([1]; anti-GAP-43 immunostaining, day 8 after nerve crush): 50 μm
abundance of regenerating axons relative to PBS-treated wild-type mice ([2]; adult Bcl-2tg mice, electron microscopy, 0.5 mm posterior to the crush, P<0.001): 20 fold
axonal regeneration after optic nerve crush ([2]; adult Bcl-2tg mice): robust regeneration
GFAP immunofluorescence staining in the optic nerve ([2]; adult wild-type and Bcl-2tg mice, 10 mg/ml in PBS on gelform at crush site): created a GFAP-negative area
effect on myelin and neuronal processes ([2]; adult wild-type and Bcl-2tg mice, immunofluorescence staining): no effect
axonal regeneration after optic nerve crush ([2]; adult wild-type mice): a few axons sprouted past the lesion site

O=C([O-])[O-].[Li+].[Li+] [lithium, lithium carbonate]
number of surviving RGCs ([3]; following optic nerve crush, not significant vs control (P>0.05)): 404 /mm^2
density of FG-labeled RGCs ([3]; normal retina): 2134 /mm^2
GFAP expression along the crushed optic nerve ([1]; mouse, in vivo): detected along the entire nerve
axon regeneration (GAP-43 labeling) ([1]; mouse, in vivo): no sign of regeneration
length of regenerating axons extending from the crushed site ([1]; mouse, in vivo): 80 μm
serum concentration of lithium [4]: 0.80±0.15 mEq/l
Bcl-2 mRNA in retina (Bcl-2; RT-PCR, lithium-containing diet vs regular diet): strong induction
Bcl-2 protein expression in retina (Bcl-2; immunostaining, lithium-containing diet): detected in the ganglion cell layer

collagenase
graft cell migration and neurite extension into the retina vs untreated hosts [5]: no difference
